# Patent publication US8470772B2, “Leptin agonist and methods of use” (Temple University—Of The Commonwealth System of Higher …, priority 2008, dated 2013)
# Non-standard residues stand in square brackets, D forms with d. No end group written: not given here. *: point of attachment. βGlc = OC[C@H]1O[C@@H](*)[C@H](O)[C@@H](O)[C@@H]1O; Tyr(3,5-I2) = N[C@@H](Cc1cc(I)c(O)c(I)c1)C(=O)O; Dap = NC[C@H](N)C(=O)O
# Tests used:
# [1] = test system: ovariectomised (OVX) ewes; test: Voluntary food intake in animals with icv infusion; type: in vivo
# Procedure: This experiment was conducted using ovariectomised (OVX) ewes (n=4/group: 55 kg). Ovariectomy removes cyclic effects of ovarian steroids, which affect sensitivity to leptin. The experiments were performed in an isolated room with an ambient temperature range of 17-22° C. […] peptide was administered to animals by way of Silastic cannulae introduced into the lateral cerebral ventricle (H8) for intracerebroventricular (icv) infusion. For infusion, pyrogen-free leptin peptide was dissolved in 0.1 mM HCl and diluted in artificial cerebrospinal fluid (aCSF) to a concentration of 10 μg/100 μl. All infusions were initiated at 0900 hours and control animals received an infusion of aCSF 100 μl/hour.
# ERK1/2 = test: ObR signaling assay: ERK1/2 phosphorylation in MCF-7 cells by Western blotting; type: cell-based, human
# Procedure: MCF-7 cells were grown and treated with E1Free peptide and full-sized leptin as described for the cell stimulation assays elsewhere herein. Cells were lysed with SDS sample buffer and scraped off of the plate. DNA was sheared using sonication, after which the sample was heated to 95° C., centrifuged and, subjected to SDS-PAGE. After gel electrophoresis, the proteins were transferred to nitrocellulose membrane. The membrane was incubated with 5% milk as blocking buffer, followed by addition of rabbit polyclonal antibodies to phosphorylated or total ERK1/2 MAP kinases (1:500 dilution in TBST and 2% milk, Cell Signaling Technology). The expression of a constitutive Hsp72/74 protein was probed with mouse monoclonal antibodies to control protein loading (1:5,000 dilution in TBST and 3% milk Calbiochem). After extensive washing, the blots incubated with HRP-conjugated secondary anti-rabbit (1:1,000 in TBST and 2% milk, Santa Cruz Biotechnology) and anti-mouse (1:10,000 TBST and 3% milk, Amersham Biosciences) IgG antibodies produced in goats, and developed as described for the dot-blot above.
substance,measurement,setting,value
"Tyr(I2)-Serβ(Glc)-Thr-Glu-Va1-Va1-Ala-Leu-Ser-Arg-Leu-Dap(Ac) ([Tyr(3,5-I2)]S(βGlc)TEVVALSRL[Dap](Ac)-NH2) [E1Free]",reduction of voluntary food intake compared to controls (aCSF),"[1]; 10 μg/hour for 7 hours icv, program-fed OVX ewes, P<0.05",approx. 25%
same,effect on voluntary food intake,"[1]; icv infusion, OVX ewes, over the course of two days",voluntarily reduce the amount of food taken in
same,peptide concentration of maximum observed ERK1/2 stimulation,ERK1/2,200 nM
same,phosphorylation of ERK1/2,ERK1/2; total ERK1/2 steady,increased
